According to US11330821B2, “Herbicidal compounds” (Syngenta Participations AG, priority 2015, dated 2022):

Experiments:
Format in all cases: in vivo
Details in all cases: post-emergence spray, evaluated after 13 days
[1] = test system: Amaranthus retroflexus (AMARE); assay: Post-emergence efficacy, Amaranthus retroflexus
Description: (§1) B1 Post-Emergence Efficacy
(§2) Seeds of a variety of test species are shown in standard soil in pots:—Solanum nigrum (SOLNI), Amaranthus retroflexus (AMARE), Setaria faberi (SETFA), Echinochloa crus-galli (ECHCG), Ipomoea hederacea (IPOHE), Lolium perenne (LOLPE). After 8 days cultivation (post-emergence) under controlled conditions in a glasshouse (at 24/16° C., day/night; 14 hours light; 65% humidity), the plants are sprayed with an aqueous spray solution derived from the formulation of the technical active ingredient in acetone/water (50:50) solution containing 0.5% Tween 20 (polyoxyethylene sorbitan monolaurate, CAS RN 9005-64-5). Compounds are applied at 1000 and 62.5 g/ha. The test plants are then grown in a glasshouse under controlled conditions in a glasshouse (at 24/16° C., day/night; 14 hours light; 65% humidity) and watered twice daily. After 13 days, the test is evaluated for the percentage damage caused to the plant. The biological activities are assessed on a five point scale (5=80-100%; 4=60-79%; 3=40-59%; 2=20-39%; 1=0-19%).

Solanum nigrum (SOLNI) = assay: Post-emergence efficacy, Solanum nigrum
Description: as §1, §2

Setaria faberi (SETFA) = assay: Post-emergence efficacy, Setaria faberi
Description: as §1, §2

Lolium perenne (LOLPE) = assay: Post-emergence efficacy, Lolium perenne
Description: as §1, §2

[2] = test system: Echinochloa crus-galli (ECHCG); assay: Post-emergence efficacy, Echinochloa crus-galli
Description: as §1, §2

[3] = test system: Ipomoea hederacea (IPOHE); assay: Post-emergence efficacy, Ipomoea hederacea
Description: as §1, §2

Structure (SMILES)	AMARE percentage damage caused to the plant (five point scale) ([1]; 62.5 g/ha)	AMARE percentage damage caused to the plant (five point scale) ([1]; 1000 g/ha)	SOLNI percentage damage caused to the plant (five point scale) (Solanum nigrum (SOLNI); 62.5 g/ha)	SOLNI percentage damage caused to the plant (five point scale) (Solanum nigrum (SOLNI); 1000 g/ha)	SETFA percentage damage caused to the plant (five point scale) (Setaria faberi (SETFA); 62.5 g/ha)	SETFA percentage damage caused to the plant (five point scale) (Setaria faberi (SETFA); 1000 g/ha)	LOLPE percentage damage caused to the plant (five point scale) (Lolium perenne (LOLPE); 62.5 g/ha)	LOLPE percentage damage caused to the plant (five point scale) (Lolium perenne (LOLPE); 1000 g/ha)	ECHCG percentage damage caused to the plant (five point scale) ([2]; 62.5 g/ha)	ECHCG percentage damage caused to the plant (five point scale) ([2]; 1000 g/ha)	IPOHE percentage damage caused to the plant (five point scale) ([3]; 62.5 g/ha)	IPOHE percentage damage caused to the plant (five point scale) ([3]; 1000 g/ha)
Cc1csc(COc2c(Cl)ccc(F)c2-c2c(O)c(C)nn(C)c2=O)n1 [Compound 1.34]	4 (4=60-79%)	5 (5=80-100%)	5 (5=80-100%)	5 (5=80-100%)	4 (4=60-79%)	5 (5=80-100%)	3 (3=40-59%)	4 (4=60-79%)	4 (4=60-79%)	5 (5=80-100%)	5 (5=80-100%)	5 (5=80-100%)
Cc1nn(C)c(=O)c(-c2c(Cl)ccc(Cl)c2OCc2ccncc2)c1O [Compound 1.03]	1 (1=0-19%)	4 (4=60-79%)	4 (4=60-79%)	5 (5=80-100%)	1 (1=0-19%)	5 (5=80-100%)	1 (1=0-19%)	4 (4=60-79%)	2 (2=20-39%)	5 (5=80-100%)	4 (4=60-79%)	4 (4=60-79%)
Cc1nn(C)c(=O)c(-c2c(F)ccc(Cl)c2OCc2cccnc2)c1O [Compound 1.23]	4 (4=60-79%)	5 (5=80-100%)	4 (4=60-79%)	5 (5=80-100%)	2 (2=20-39%)	5 (5=80-100%)	2 (2=20-39%)	5 (5=80-100%)	2 (2=20-39%)	5 (5=80-100%)	4 (4=60-79%)	5 (5=80-100%)
Cc1cnc(COc2c(Cl)ccc(Cl)c2-c2c(O)c(C)nn(C)c2=O)cn1 [Compound 1.21]	2 (2=20-39%)	3 (3=40-59%)	3 (3=40-59%)	4 (4=60-79%)	3 (3=40-59%)	5 (5=80-100%)	1 (1=0-19%)	2 (2=20-39%)	1 (1=0-19%)	4 (4=60-79%)	4 (4=60-79%)	5 (5=80-100%)
Cc1csc(COc2c(Cl)ccc(Cl)c2-c2c(O)c(C)nn(C)c2=O)n1 [Compound 1.13]	3 (3=40-59%)	4 (4=60-79%)	4 (4=60-79%)	5 (5=80-100%)	4 (4=60-79%)	5 (5=80-100%)	2 (2=20-39%)	4 (4=60-79%)	3 (3=40-59%)	5 (5=80-100%)	4 (4=60-79%)	5 (5=80-100%)
Cc1nn(C)c(=O)c(-c2c(Cl)ccc(Cl)c2OCc2cccnc2)c1O [Compound 1.02]	4 (4=60-79%)	4 (4=60-79%)	4 (4=60-79%)	5 (5=80-100%)	3 (3=40-59%)	5 (5=80-100%)	2 (2=20-39%)	4 (4=60-79%)	3 (3=40-59%)	4 (4=60-79%)	3 (3=40-59%)	5 (5=80-100%)
